Experimental findings from US9205064B2, “Methods for the diagnosis of oncological disorders using epimetabolic shifters, multidimensional intracellular molecules, or environmental influencers” (Berg LLC, priority 2009, dated 2015) are described below.

Assay in all cases: Nexin assay for apoptosis (Annexin-V-PE/7-AAD, flow cytometry)
(In flow cytometry, cells or beads pass a laser one at a time.)

One assay relates to SK-MEL28. The class given is cell-based. The note with it: 50 μM and 100 μM Q10, 24 hours. The source says:
(§1) The 7AAD dye will enter into cells with permeabilized cell membranes; primarily those cells that are in late apoptosis. Annexin-V-PE is a dye that binds to Phosphotidyl serine, which is exposed on the outer surface of the plasma membrane in early apoptotic cells. The Nexin reagent thus can be used to differentiate between different populations of apoptotic cells in a flow cytometer.

Another assay deals with MCF-7. It counts as cell-based. The note with it: 50 μM and 100 μM Q10, 24 hours.
Source text: as §1

The test system of a further assay is PC-3. The class given is cell-based. As to conditions: 50 μM and 100 μM Q10, 24 hours; less than PaCa2.
Source text: as §1

A further assay relates to SKBr3. It counts as cell-based, human. The note with it: 50 μM or 100 μM Q10, 24 hours.
Source text: as §1

Turning to `COC1=C(OC)C(=O)C(C/C=C(\C)CC/C=C(\C)CC/C=C(\C)CC/C=C(\C)CC/C=C(\C)CC/C=C(\C)CC/C=C(\C)CC/C=C(\C)CC/C=C(\C)CCC=C(C)C)=C(C)C1=O` [Q10, Coenzyme Q10], the apoptotic population entry in the assay on SK-MEL28 and in the assay on MCF-7 was “increase only in early apoptotic population” each time. Moreover, the “early and late apoptotic population” value in the assay with PC-3 is on record as “increase”. In addition, the “early and late apoptosis” value with SKBr3 is “did not show any significant increases”.
